Consider 24 compounds from US12473304B2, “Heterocyclic PAD4 inhibitors” (BRISTOL-MYERS SQUIBB COMPANY, priority 2020, dated 2025).

The term IC50 denotes the concentration that gives 50% inhibition.

Chain of human PAD4 (hPAD4) (Q9UM07 whole entry): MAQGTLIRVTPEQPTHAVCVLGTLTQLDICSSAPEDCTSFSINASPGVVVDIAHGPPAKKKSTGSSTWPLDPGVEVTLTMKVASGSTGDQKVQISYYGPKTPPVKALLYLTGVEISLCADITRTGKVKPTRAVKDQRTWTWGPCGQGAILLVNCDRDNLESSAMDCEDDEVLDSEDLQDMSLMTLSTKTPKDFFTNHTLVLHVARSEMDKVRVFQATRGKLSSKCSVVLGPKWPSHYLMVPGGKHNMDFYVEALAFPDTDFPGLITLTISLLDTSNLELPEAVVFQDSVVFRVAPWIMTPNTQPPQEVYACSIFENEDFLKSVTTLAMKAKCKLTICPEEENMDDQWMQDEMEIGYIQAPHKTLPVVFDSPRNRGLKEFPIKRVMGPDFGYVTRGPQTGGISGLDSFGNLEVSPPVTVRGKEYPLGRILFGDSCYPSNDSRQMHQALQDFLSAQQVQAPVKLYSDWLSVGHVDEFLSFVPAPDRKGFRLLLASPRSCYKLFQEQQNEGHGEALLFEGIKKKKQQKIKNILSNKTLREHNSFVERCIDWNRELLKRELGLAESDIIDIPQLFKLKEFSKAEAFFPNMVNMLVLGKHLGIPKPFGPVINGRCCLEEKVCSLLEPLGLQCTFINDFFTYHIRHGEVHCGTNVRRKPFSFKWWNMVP

This assay has as its target human PAD4 (hPAD4) (Homo sapiens (Human), UniProt Q9UM07). Description: RFMS Human PAD4 Functional Assay 1. As to conditions: RFMS assay 1; 5 nM hPAD4, 250 μM BAEE substrate, 50 μM calcium, 37° C. The format is biochemical. The method, boiled down:
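Citrullination product read by RapidFire triple-quad MRM against a modified-citrulline internal standard, after TCA stop and 30 min phenyl glyoxal step at 37 °C. Reaction: 250 μM BAEE, 5 nM human PAD4, 90 min at 37 °C, pH 7.5 HEPES buffer with 50 μM calcium and 5 μM TPEN, following 30 min compound–enzyme preincubation (max 50 μM).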
Regarding `Cc1c(-c2cc3ccc(-c4ccccc4N4CCNC4=O)cc3n2CC2CC2)nn2cc(C(=O)N3CC4CCC3[C@@H]4N)ccc12` (stereo partly drawn) [Example 338, 1-[2-(2-{6-[(7R)-7-Amino-2-azabicyclo[2.2.1]heptane-2-carbonyl]-3-methylpyrazolo[1,5-a]pyridin-2-yl}-1-(cyclopropylmethyl)-1H-indol-6-yl)phenyl]imidazolidin-2-one], the concentration for half-maximal inhibition (IC50) was determined as 50 nM.

Consider `COC1CN(c2ccc3cc(-c4oc5cc(C(=O)N6CC7CCC6[C@@H]7N)ccc5c4C)n(CC4CC4)c3n2)C1` (stereo partly drawn) [Example 173, ((7R)-7-Amino-2-azabicyclo[2.2.1]heptan-2-yl)(2-(1-(cyclopropylmethyl)-6-(3-methoxyazetidin-1-yl)-1H-pyrrolo[2,3-b]pyridin-2-yl)-3-methylbenzofuran-6-yl)methanone], for which the IC50 was determined as 90 nM.

`Cc1c(-c2cc3ccc(-c4ccn5c(C)nnc5c4)cc3n2CC2CC2)oc2cc(C(=O)N3CC4CCC3[C@@H]4N)ccc12` (stereo partly drawn) [Example 179, ((7R)-7-Amino-2-azabicyclo[2.2.1]heptan-2-yl)(2-(1-(cyclopropylmethyl)-6-(3-methyl-[1,2,4]triazolo[4,3-a]pyridin-7-yl)-1H-indol-2-yl)-3-methylbenzofuran-6-yl)methanone]: the 50% inhibitory concentration (IC50) worked out at 35 nM.

For the compound `Cc1c(-c2cc3ccc(C(C)(O)C(F)(F)F)nc3n2CC2CC2)nn2cc(C(=O)N3C[C@H](N)C[C@@H](F)C3)ccc12` (single isomer, unassigned) [Example 106], the IC50 turned out to be 208 nM.

In the case of `Cc1c(-c2cc3cccc(C4CCN(C(=O)COC(C)C)CC4)c3n2CC2CC2)nn2cc(C(=O)N3C[C@H](N)C[C@@H](F)C3)ccc12` [Example 431, 1-(4-(2-(6-((3R,5R)-3-amino-5-fluoropiperidine-1-carbonyl)-3-methylpyrazolo[1,5-a]pyridin-2-yl)-1-(cyclopropylmethyl)-1H-indol-7-yl)piperidin-1-yl)-2-isopropoxyethan-1-one], the concentration for half-maximal inhibition (IC50) was 130 nM.

In the case of `COc1cc(C(=O)N2C[C@H](N)C[C@@H](F)C2)cn2nc(-c3cc4cccc(OCC5CC(=O)N(C)C5)c4n3CC3CC3)c(C)c12` (single isomer, unassigned) [Example 554], the half-inhibitory concentration (IC50) came to 60 nM.

`CNC(=O)c1ccc(-c2ccc3cc(-c4nn5cc(C(=O)N6CCC[C@@H](N)C6)cc(F)c5c4C)n(CC4CC4)c3n2)cn1` [Example 287, 5-(2-{6-[(3R)-3-Aminopiperidine-1-carbonyl]-4-fluoro-3-methylpyrazolo[1,5-a]pyridin-2-yl}-1-(cyclopropylmethyl)-1H-pyrrolo[2,3-b]pyridin-6-yl)-N-methylpyridine-2-carboxamide]: the IC50 was found to be 1280 nM.

For `Cc1c(-c2cc3cc(F)cc(C4CCN(C(=O)C5CC(O)(C(F)(F)F)C5)CC4)c3n2CC2CC2)nn2cc(C(=O)N3CCC[C@@H](N)C3)ccc12` (stereo partly drawn) [Example 504, (R)-(3-Aminopiperidin-1-yl)(2-(1-(cyclopropylmethyl)-5-fluoro-7-(1-(3-hydroxy-3-(trifluoromethyl)cyclobutane-1-carbonyl)piperidin-4-yl)-1H-indol-2-yl)-3-methylpyrazolo[1,5-a]pyridin-6-yl)methanone], the half-maximal inhibitory concentration (IC50) turned out to be 110 nM.

Turning to `COc1cc(C(=O)N2C[C@H](N)C[C@@H](F)C2)cn2nc(-c3cc4ccc(-c5ccccc5CO)cc4n3CC3CC3)c(C)c12` [Example 209, [2-(2-{6-[(3R,5R)-3-Amino-5-fluoropiperidine-1-carbonyl]-4-methoxy-3-methylpyrazolo[1,5-a]pyridin-2-yl}-1-(cyclopropylmethyl)-1H-indol-6-yl)phenyl]methanol], the IC50 is 1080 nM.

Regarding `Cc1c(-c2cc3ccc(-c4ccc(N5CCNC5=O)cc4)cc3n2CC2CC2)nn2cc(C(=O)N3CC4CCC3[C@@H]4N)ccc12` (stereo partly drawn) [Example 328, 1-[4-(2-{6-[(7R)-7-Amino-2-azabicyclo[2.2.1]heptane-2-carbonyl]-3-methylpyrazolo[1,5-a]pyridin-2-yl}-1-(cyclopropylmethyl)-1H-indol-6-yl)phenyl]imidazolidin-2-one], the IC50 came to 120 nM.

On to `COc1cc(C(=O)N2CCC[C@@H](N)C2)cn2nc(-c3cc4cccc(C5CCN(C(=O)C6CCCCO6)CC5)c4n3CC3CC3)c(C)c12` (single isomer, unassigned) [Example 386], for which the IC50 was found to be 80 nM.

As for `COC(C)(C)C(=O)N1CCC(c2cccc3cc(-c4nn5cc(C(=O)N6CCC[C@@H](N)C6)cc(F)c5c4C)n(CC4CC4)c23)CC1` [Example 418, (R)-1-(4-(2-(6-(3-Aminopiperidin-1-carbonyl)-4-fluoro-3-methylpyrazolo[1,5-a]pyridin-2-yl)-1-(cyclopropylmethyl)-1H-indol-7-yl)piperidin-1-yl)-2-methoxy-2-methylpropan-1-one], the concentration for half-maximal inhibition (IC50) was found to be 1710 nM.

Turning to `CO[C@@H](C)C(=O)N1CCC(c2cccc3cc(-c4nn5cc(C(=O)N6C[C@H](N)C[C@@H](F)C6)ccc5c4C)n(CC4CC4)c23)CC1` [Example 459, (S)-1-(4-(2-(6-((3R,5R)-3-amino-5-fluoropiperidine-1-carbonyl)-3-methylpyrazolo[1,5-a]pyridin-2-yl)-1-(cyclopropylmethyl)-1H-indol-7-yl)piperidin-1-yl)-2-methoxypropan-1-one], the IC50 was 140 nM.

As to `Cc1c(-c2cc3cccc(C4CCN(C(=O)C(C)(C)O)CC4)c3n2CC2CC2)nn2cc(C(=O)N3C[C@H](N)C[C@@H](F)C3)ccc12` [Example 435, 1-(4-(2-(6-((3R,5R)-3-amino-5-fluoropiperidine-1-carbonyl)-3-methylpyrazolo[1,5-a]pyridin-2-yl)-1-(cyclopropylmethyl)-1H-indol-7-yl)piperidin-1-yl)-2-hydroxy-2-methylpropan-1-one], the IC50 was 380 nM.

Consider `COc1cc(C(=O)N2C[C@H](N)C[C@@H](F)C2)cn2nc(-c3cc4ccc(-c5cccc(CO)c5)cc4n3CC3CC3)c(C)c12` [Example 210, [3-(2-{6-[(3R,5R)-3-Amino-5-fluoropiperidine-1-carbonyl]-4-methoxy-3-methylpyrazolo[1,5-a]pyridin-2-yl}-1-(cyclopropylmethyl)-1H-indol-6-yl)phenyl]methanol], for which the 50% inhibitory concentration (IC50) is 490 nM.

On to `Cc1c(-c2cc3ccc(C4CC4)nc3n2CC2CC2)nn2cc(C(=O)N3C[C@H](N)C[C@@H](F)C3)cc(F)c12` [Example 57, ((3R,5R)-3-Amino-5-fluoropiperidin-1-yl)(2-(6-cyclopropyl-1-(cyclopropylmethyl)-1H-pyrrolo[2,3-b]pyridin-2-yl)-4-fluoro-3-methylpyrazolo[1,5-a]pyridin-6-yl)methanone], for which the IC50 was found to be 781 nM.

Consider `COc1cc(C(=O)N2CC3CCC2[C@@H]3N)cn2nc(-c3cc4ccc(-c5cccc(O)c5F)nc4n3CC3CC3)c(C)c12` (stereo partly drawn) [Example 9, ((7R)-7-Amino-2-azabicyclo[2.2.1]heptan-2-yl)(2-(1-(cyclopropylmethyl)-6-(2-fluoro-3-hydroxyphenyl)-1H-pyrrolo[2,3-b]pyridin-2-yl)-4-methoxy-3-methylpyrazolo[1,5-a]pyridin-6-yl)methanone], for which the 50% inhibitory concentration (IC50) amounted to 120 nM.

`Cc1c(-c2cc3cccc(C4CCN(C(=O)C5CC(O)C5)CC4)c3n2CC2CC2)nn2cc(C(=O)N3C[C@H](N)C[C@@H](F)C3)cc(F)c12` (mixture of isomers) [Example 419, ((3R,5R)-3-Amino-5-fluoropiperidin-1-yl)(2-(1-(cyclopropylmethyl)-7-(1-(3-hydroxycyclobutane-1-carbonyl)piperidin-4-yl)-1H-indol-2-yl)-4-fluoro-3-methylpyrazolo[1,5-a]pyridin-6-yl)methanone]: the IC50 was found to be 8250 nM.

Turning to `Cc1c(-c2cc3cccc(OCC4CC(=O)N(C)C4)c3n2CC2CC2)nn2cc(C(=O)N3CCC[C@@H](N)C3)ccc12` (single isomer, unassigned) [Example 576], the half-inhibitory concentration (IC50) is 190 nM.

As for `Cc1c(-c2cc3cccc(OC[C@@H]4CCC(=O)N4)c3n2CC2CC2)nn2cc(C(=O)N3C[C@H](N)C[C@@H](F)C3)cc(F)c12` [Example 568, (S)-5-(((2-(6-((3R,5R)-3-Amino-5-fluoropiperidine-1-carbonyl)-4-fluoro-3-methylpyrazolo[1,5-a]pyridin-2-yl)-1-(cyclopropylmethyl)-1H-indol-7-yl)oxy)methyl)pyrrolidin-2-one], the concentration for half-maximal inhibition (IC50) turned out to be 60 nM.

On to `Cc1c(-c2cc3ccc(-c4cccc(O)c4F)nc3n2CC2CC2)nn2cc(C(=O)N3CC4CCC3[C@@H]4N)cc(F)c12` (stereo partly drawn) [Example 49, ((7R)-7-Amino-2-azabicyclo[2.2.1]heptan-2-yl)(2-(1-(cyclopropylmethyl)-6-(2-fluoro-3-hydroxyphenyl)-1H-pyrrolo[2,3-b]pyridin-2-yl)-4-fluoro-3-methylpyrazolo[1,5-a]pyridin-6-yl)methanone], for which the concentration for half-maximal inhibition (IC50) worked out at 36 nM.

Regarding `COc1cc(C(=O)N2CC3CCC2[C@@H]3N)cn2nc(-c3cc4ccnc(OCC5CNC(=O)C5)c4n3CC3CC3)c(C)c12` (single isomer, unassigned; isomer 1) [Example 605], the 50% inhibitory concentration (IC50) was 70 nM.

In the case of `COc1cc(C(=O)N2CCC[C@@H](N)C2)cn2nc(-c3cc4ccnc(OCC5COC5)c4n3CC3CC3)c(C)c12` [Example 596, (R)-(3-Aminopiperidin-1-yl)(2-(1-(cyclopropylmethyl)-7-(oxetan-3-ylmethoxy)-1H-pyrrolo[2,3-c]pyridin-2-yl)-4-methoxy-3-methylpyrazolo[1,5-a]pyridin-6-yl)methanone], the IC50 came out at 7390 nM.

Regarding `Cc1c(-c2cc3ccc(-c4ccccc4N4CCNC4=O)nc3n2CC2CC2)nn2cc(C(=O)N3CCC[C@@H](N)C3)cc(F)c12` [Example 281, 1-[2-(2-{6-[(3R)-3-Aminopiperidine-1-carbonyl]-4-fluoro-3-methylpyrazolo[1,5-a]pyridin-2-yl}-1-(cyclopropylmethyl)-1H-pyrrolo[2,3-b]pyridin-6-yl)phenyl]imidazolidin-2-one], the IC50 stood at 140 nM.
